# How the values were obtained:
# [1] = target: T1, Purified recombinant ADAMTS-7 (rat prodomain/human catalytic domain, SEQ ID No. 01 or 02) (Homo sapiens, UniProt Q9UKP4); test: Assay for ADAMTS-7 enzymatic activity (FRET substrate cleavage); assay type: biochemical; conditions: FRET substrate SEQ ID No. 11, 120 min at 32° C.; read-out: ADAMTS7-IC50
# T1 construct: rat ADAMTS-7 signal peptide + prodomain (rat 1-217, Q1EHB3) (N); 2xStrep tag (C); 6xHis tag (C); made in house; host or cells: Expi293 cells
# T1 sequence (Q9UKP4 237-537): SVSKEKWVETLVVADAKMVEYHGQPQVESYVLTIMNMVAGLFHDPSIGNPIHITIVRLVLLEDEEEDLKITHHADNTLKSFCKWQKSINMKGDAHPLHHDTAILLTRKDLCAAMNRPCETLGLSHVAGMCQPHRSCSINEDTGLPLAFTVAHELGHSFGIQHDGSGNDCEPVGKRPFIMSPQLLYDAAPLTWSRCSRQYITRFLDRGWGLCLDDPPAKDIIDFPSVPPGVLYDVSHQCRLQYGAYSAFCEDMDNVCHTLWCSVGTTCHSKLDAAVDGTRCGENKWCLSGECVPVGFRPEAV
# Procedure, shortened: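 About 20 nM enzyme in 20 mM HEPES pH 8.0, 150 mM NaCl, 5 mM CaCl2, 0.004% Brij and 10 μM ZnCl2 was mixed with compound in DMSO and a QXL520-quenched FRET peptide from thrombospondin-1 (275-289). After 120 min at 32 °C, fluorescence was read at 485/520 nm. IC50 came from percent inhibition versus concentration.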
# ADAMTS4 = target: T2, ADAMTS4 (Homo sapiens, UniProt O75173); test: Selectivity assay for ADAMTS-7 modulators (FRET), ADAMTS4; assay type: biochemical; conditions: 50 nM enzyme (R&D 4307-AD), 1 μM Dabcyl/Edans FRET substrate, 120 min at 32° C.
# T2 construct: purchased R&D 4307-AD
# T2 sequence (O75173 213-685 limits assumed): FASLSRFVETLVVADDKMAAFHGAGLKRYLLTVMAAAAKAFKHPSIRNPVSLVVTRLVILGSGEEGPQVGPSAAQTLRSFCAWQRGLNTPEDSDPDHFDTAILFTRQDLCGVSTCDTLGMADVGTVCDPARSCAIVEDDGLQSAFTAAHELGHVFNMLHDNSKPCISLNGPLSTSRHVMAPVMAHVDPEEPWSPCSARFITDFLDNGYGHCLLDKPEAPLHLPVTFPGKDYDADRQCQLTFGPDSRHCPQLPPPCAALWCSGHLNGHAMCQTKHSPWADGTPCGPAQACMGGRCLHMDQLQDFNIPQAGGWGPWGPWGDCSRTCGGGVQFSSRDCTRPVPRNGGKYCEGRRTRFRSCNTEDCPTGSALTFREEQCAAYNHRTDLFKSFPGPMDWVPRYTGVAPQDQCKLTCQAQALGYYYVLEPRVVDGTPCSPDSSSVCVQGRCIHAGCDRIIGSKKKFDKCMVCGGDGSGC
# Procedure, shortened: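 Enzyme in 50 mM Tris pH 7.5, 150 mM NaCl, 10 mM CaCl2, 0.05% Brij, preincubated with compound in DMSO; reaction started with FRET substrate. Fluorescence increase read after 120 min at 32° C; IC50 from percent inhibition versus compound concentration.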
Structure (SMILES),IC50 [1] [nM],IC50 (ADAMTS4) [nM]
"O=C1NC(=O)[C@](CNC(=O)c2cnn(-c3cccc(F)c3)n2)(C2CC2)N1 [Example 1, N-{[(4R)-4-cyclopropyl-2,5-dioxoimidazolidin-4-yl]methyl}-2-(3-fluorophenyl)-2H-1,2,3-triazole-4-carboxamide]",13,580
"CC(C)(C)C1(CNC(=O)c2cnn(-c3ccc(F)cc3)n2)NC(=O)NC1=O (stereo not drawn) [Example 3, ent-N-{[4-tert-butyl-2,5-dioxoimidazolidin-4-yl]methyl}-2-(4-fluorophenyl)-2H-1,2,3-triazole-4-carboxamide]",79,2200
"O=C1NC(=O)[C@](CNC(=O)c2cnn(-c3ccc(C(F)(F)F)c(F)c3)n2)(C2CC2)N1 [Example 5, N-{[(4R)-4-cyclopropyl-2,5-dioxoimidazolidin-4-yl]methyl}-2-[3-fluoro-4-(trifluoromethyl)phenyl]-2H-1,2,3-triazole-4-carboxamide]",120,4600
"O=C1NC(=O)[C@](CNC(=O)c2cnn(-c3ccc(F)c(F)c3)n2)(C2CC2)N1 [Example 8, N-{[(4R)-4-cyclopropyl-2,5-dioxoimidazolidin-4-yl]methyl}-2-(3,4-difluorophenyl)-2H-1,2,3-triazole-4-carboxamide]",7,175
"O=C1NC(=O)[C@](CNC(=O)c2cnn(-c3ccc(Cl)cc3)n2)(C2CC2)N1 [Example 9, 2-(4-chlorophenyl)-N-{[(4R)-4-cyclopropyl-2,5-dioxoimidazolidin-4-yl]methyl}-2H-1,2,3-triazole-4-carboxamide]",26,480
"O=C1NC(=O)[C@](CNC(=O)c2cnn(-c3cccc(Cl)c3)n2)(C2CC2)N1 [Example 10, 2-(3-chlorophenyl)-N-{[(4R)-4-cyclopropyl-2,5-dioxoimidazolidin-4-yl]methyl}-2H-1,2,3-triazole-4-carboxamide]",21,450
"O=C1NC(=O)[C@](CNC(=O)c2cnn(-c3ccccc3Cl)n2)(C2CC2)N1 [Example 11, 2-(2-chlorophenyl)-N-{[(4R)-4-cyclopropyl-2,5-dioxoimidazolidin-4-yl]methyl}-2H-1,2,3-triazole-4-carboxamide]",470,10000
"Cc1ccccc1-n1ncc(C(=O)NC[C@@]2(C3CC3)NC(=O)NC2=O)n1 [Example 12, N-{[(4R)-4-cyclopropyl-2,5-dioxoimidazolidin-4-yl]methyl}-2-(2-methylphenyl)-2H-1,2,3-triazole-4-carboxamide]",980,12000
"Cc1ccc(-n2ncc(C(=O)NC[C@@]3(C4CC4)NC(=O)NC3=O)n2)cc1 [Example 13, N-{[(4R)-4-cyclopropyl-2,5-dioxoimidazolidin-4-yl]methyl}-2-(4-methylphenyl)-2H-1,2,3-triazole-4-carboxamide]",47,950
"N#Cc1ccc(-n2ncc(C(=O)NC[C@@]3(C4CC4)NC(=O)NC3=O)n2)cc1 [Example 14, 2-(4-cyanophenyl)-N-{[(4R)-4-cyclopropyl-2,5-dioxoimidazolidin-4-yl]methyl}-2H-1,2,3-triazole-4-carboxamide]",400,17000
"N#Cc1cccc(-n2ncc(C(=O)NC[C@@]3(C4CC4)NC(=O)NC3=O)n2)c1 [Example 17, 2-(3-cyanophenyl)-N-{[(4R)-4-cyclopropyl-2,5-dioxoimidazolidin-4-yl]methyl}-2H-1,2,3-triazole-4-carboxamide]",32,600
"Cc1cccc(-n2ncc(C(=O)NC[C@@]3(C4CC4)NC(=O)NC3=O)n2)c1 [Example 18, N-{[(4R)-4-cyclopropyl-2,5-dioxoimidazolidin-4-yl]methyl}-2-(3-methylphenyl)-2H-1,2,3-triazole-4-carboxamide]",170,2200
"COc1ccc(-n2ncc(C(=O)NC[C@@]3(C4CC4)NC(=O)NC3=O)n2)cc1 [Example 27, N-{[(4R)-4-cyclopropyl-2,5-dioxoimidazolidin-4-yl]methyl}-2-(4-methoxyphenyl)-2H-1,2,3-triazole-4-carboxamide]",100,6000
"CS(=O)(=O)c1ccc(-n2ncc(C(=O)NC[C@@]3(C4CC4)NC(=O)NC3=O)n2)cc1 [Example 28, N-{[(4R)-4-cyclopropyl-2,5-dioxoimidazolidin-4-yl]methyl}-2-[4-(methylsulfonyl)phenyl]-2H-1,2,3-triazole-4-carboxamide]",870,67000
"O=C1NC(=O)[C@](CNC(=O)c2cnn(-c3ccc(F)c(Cl)c3)n2)(C2CC2)N1 [Example 29, 2-(3-chloro-4-fluorophenyl)-N-{[(4R)-4-cyclopropyl-2,5-dioxoimidazolidin-4-yl]methyl}-2H-1,2,3-triazole-4-carboxamide]",5,250
"O=C1NC(=O)[C@](CNC(=O)c2cnn(-c3ccc(Cl)c(F)c3)n2)(C2CC2)N1 [Example 30, 2-(4-chloro-3-fluorophenyl)-N-{[(4R)-4-cyclopropyl-2,5-dioxoimidazolidin-4-yl]methyl}-2H-1,2,3-triazole-4-carboxamide]",12,500
"O=C1NC(=O)[C@](CNC(=O)c2cnn(-c3ccc(F)cc3F)n2)(C2CC2)N1 [Example 31, N-{[(4R)-4-cyclopropyl-2,5-dioxoimidazolidin-4-yl]methyl}-2-(2,4-difluorophenyl)-2H-1,2,3-triazole-4-carboxamide]",41,4250
"O=C1NC(=O)[C@](CNC(=O)c2cnn(-c3ccc(Cl)c(Cl)c3)n2)(C2CC2)N1 [Example 32, N-{[(4R)-4-cyclopropyl-2,5-dioxoimidazolidin-4-yl]methyl}-2-(3,4-dichlorophenyl)-2H-1,2,3-triazole-4-carboxamide]",35,910
"O=C1NC(=O)[C@](CNC(=O)c2cnn(-c3ccc(Br)cc3)n2)(C2CC2)N1 [Example 33, 2-(4-bromophenyl)-N-{[(4R)-4-cyclopropyl-2,5-dioxoimidazolidin-4-yl]methyl}-2H-1,2,3-triazole-4-carboxamide]",58,1400
"O=C1NC(=O)[C@](CNC(=O)c2cnn(-c3ccc(F)cc3)n2)(C2CC2)N1 [Example 34, N-{[(4R)-4-cyclopropyl-2,5-dioxoimidazolidin-4-yl]methyl}-2-(4-fluorophenyl)-2H-1,2,3-triazole-4-carboxamide]",26,1420
"O=C1NC(=O)[C@](CNC(=O)c2cnn(-c3cccc(F)c3F)n2)(C2CC2)N1 [Example 35, N-{[(4R)-4-cyclopropyl-2,5-dioxoimidazolidin-4-yl]methyl}-2-(2,3-difluorophenyl)-2H-1,2,3-triazole-4-carboxamide]",74,3100
"O=C1NC(=O)[C@](CNC(=O)c2cnn(-c3cc(F)ccc3F)n2)(C2CC2)N1 [Example 36, N-{[(4R)-4-cyclopropyl-2,5-dioxoimidazolidin-4-yl]methyl}-2-(2,5-difluorophenyl)-2H-1,2,3-triazole-4-carboxamide]",110,5500
"O=C1NC(=O)[C@](CNC(=O)c2cnn(-c3ccccc3F)n2)(C2CC2)N1 [Example 37, N-{[(4R)-4-cyclopropyl-2,5-dioxoimidazolidin-4-yl]methyl}-2-(2-fluorophenyl)-2H-1,2,3-triazole-4-carboxamide]",180,7600

# Reference: patent US20230027985A1, “SUBSTITUTED HYDANTOINAMIDES AS ADAMTS7 ANTAGONISTS” (Bayer Aktiengesellschaft, priority 2019, published 2023)
